From patent US20170248582A1, “Mixed Spheroids of Melanocytes and Keratinocytes” (Syntivia, priority 2014, published 2017)
“Also recorded” adds a separate entry of the source.

How the values were obtained:
[1] = tested on: mixed spheroids of keratinocytes and melanocytes; test: Assay of melanin on mixed spheroids after treatment (photometry, melanin / total proteins); assay type: cell-based, Human
Description: The cells were lysed in a solution of 1M NaOH+10% DMSO and incubated 30 min at 90° C. A standard range was prepared with synthetic melanin and read-out performed at a wavelength of 405 nm. Assay of total proteins was performed on the lysate of melanin assay using the microBCA kit in accordance with the supplier's instructions. A standard range was prepared with BSA and read-out was performed at a wavelength of 605 nm. The results are expressed in the form of a ratio between the assay of melanin and assay of total proteins. 24 h after seeding, the mixed spheroids of the invention such as prepared in Example 1, and after removal of Matrigel® by washing with PBS, were treated with 300 μM IBMX or 500 μM PTU for 5 days with renewal of treatment at 4 days. The melanin was assayed as explained in Example 3.

[2] = tested on: genes MITF, TYR, TYRP1 and PMEL in mixed spheroids of keratinocytes and melanocytes; test: Quantification of pigmentation gene expression by quantitative PCR in mixed spheroids; assay type: cell-based, Human; details: 300 μM IBMX for 24 h, normalised to GAPDH, vs non-treated control
Description: 48 h after their seeding the mixed spheroids of the invention such as prepared in Example 1, and after removal of Matrigel® by washing with PBS, were treated with 300 μM IBMX for 24 h. The spheroids were collected and washed with PBS after 24 h treatment with IBMX. The RNAs were extracted and reverse-transcribed to cDNA. Quantitative PCR was then performed to quantify the expression of the genes MITF, TYR, TYRP1 and PMEL. The expression of these genes was normalised by expression of the GAPDH housekeeping gene and compared with the non-treated control.

SMILES | induction of the amount of melanin in relation to total proteins ([1]; 300 μM IBMX for 5 days, renewal at 4 days, vs solvent control (DMSO)) [%] | total amount of melanin in the mixed spheroid ([1]; 300 μM IBMX for 5 days, compared with solvent control (DMSO), FIG. 8) | MITF expression, increased by a factor of [2] | expression of MITF gene ([2]; FIG. 9) | expression of PMEL gene ([2]; FIG. 9) | expression of TYR gene ([2]; FIG. 9) | expression of TYRP1 gene ([2]; FIG. 9) | global amount of melanin in the mixed spheroid / melanin production ([1]; 500 μM PTU for 5 days, compared with solvent control (EtOH), FIG. 8)
CC(C)Cn1c(=O)n(C)c(=O)c2[nH]cnc21 [IBMX, 3-isobutyl-1-methylxanthine] | 50 | increase in the total amount of melanin | 5 | induced; also recorded: expression increased | induced; also recorded: increased | induced; also recorded: increased | induced; also recorded: increased | –
CCCc1cc(=O)[nH]c(=S)[nH]1 [PTU, propylthiouracil] | – | – | – | – | – | – | – | inhibits melanin production; also recorded: decrease in the global amount of melanin
